Assay results as given in ChEMBL document CHEMBL1201862, “PubChem BioAssay data set” (2004).
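Five compound concentrations were applied to cells in 96-well plates for 48 hours; endpoints were derived by simple linear interpolation of the resulting dose-response curve. GI50: concentration for 50% inhibition of growth.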 Activity calls are given as the source filed them. Rule as the data show it: active = GI50 up to about 1.1 µM and inactive = higher.

What was measured:
Test in all cases: NCI anticancer screen, dose series, 48 h
HCT-15 = tested on: HCT-15
OVCAR-4 = tested on: OVCAR-4
A498 = tested on: A498
IGROV-1 = tested on: IGROV-1
SF-295 = tested on: SF-295
COLO 205 = tested on: COLO 205
NCI-H460 = tested on: NCI-H460
NCI-H23 = tested on: NCI-H23
CCRF-CEM = tested on: CCRF-CEM
UACC-257 = tested on: UACC-257
MDA-N = tested on: MDA-N
NCI-H522 = tested on: NCI-H522
SF-268 = tested on: SF-268
SNB-75 = tested on: SNB-75
M14 = tested on: M14
OVCAR-5 = tested on: OVCAR-5
MOLT-4 = tested on: MOLT-4
PC-3 = tested on: PC-3
HOP-92 = tested on: HOP-92
CAKI-1 = tested on: CAKI-1
RPMI-8226 = tested on: RPMI-8226
NCI-H226 = tested on: NCI-H226
A549 = tested on: A549
HOP-62 = tested on: HOP-62
SNB-19 = tested on: SNB-19
DU-145 = tested on: DU-145
SK-MEL-2 = tested on: SK-MEL-2
786-0 = tested on: 786-0
NCI/ADR-RES = tested on: NCI/ADR-RES
EKVX = tested on: EKVX
Hs-578T = tested on: Hs-578T
BT-549 = tested on: BT-549
UACC-62 = tested on: UACC-62
MCF7 = tested on: MCF7
TK-10 = tested on: TK-10
HCT-116 = tested on: HCT-116
MDA-MB-231 = tested on: MDA-MB-231
Malme-3M = tested on: Malme-3M
MDA-MB-435 = tested on: MDA-MB-435
UO-31 = tested on: UO-31
RXF 393 = tested on: RXF 393
SW-620 = tested on: SW-620
OVCAR-8 = tested on: OVCAR-8
SF-539 = tested on: SF-539
SK-MEL-28 = tested on: SK-MEL-28
KM12 = tested on: KM12
SK-OV-3 = tested on: SK-OV-3
LOX IMVI = tested on: LOX IMVI
SR = tested on: SR
SK-MEL-5 = tested on: SK-MEL-5
K562 = tested on: K562
HT-29 = tested on: HT-29
SN12C = tested on: SN12C
U-251 = tested on: U-251
HL-60 = tested on: HL-60
T47D = tested on: T47D
ACHN = tested on: ACHN
OVCAR-3 = tested on: OVCAR-3

For CC(C)(C)OC(=O)CN1CCNCCNCC1, which GI50 (HCT-15) is on record?
The GI50 was greater than 100 µM.

And the GI50 (OVCAR-4)?
Its GI50 is > 100 µM (inactive).

And the GI50 (A498)?
Its GI50 is > 100 µM (inactive).

And the GI50 (IGROV-1)?
Its GI50 is > 100 µM (inactive).

What about the GI50 (SF-295) of the same compound?
Its GI50 is > 100 µM (inactive).

And the GI50 (COLO 205)?
The GI50 was > 100 µM (inactive).

What about the GI50 (NCI-H460) of the same compound?
Its GI50 is > 100 µM (inactive).

And the GI50 (NCI-H23)?
The GI50 was > 100 µM (inactive).

What about the GI50 (CCRF-CEM) of the same compound?
Its GI50 is > 100 µM (inactive).

What about the GI50 (UACC-257) of the same compound?
The GI50 was > 100 µM (inactive).

What about the GI50 (MDA-N) of the same compound?
Its GI50 is > 100 µM (inactive).

And the GI50 (NCI-H522)?
Its GI50 is > 100 µM (inactive).

What about the GI50 (SF-268) of the same compound?
The GI50 was > 100 µM (inactive).

What about the GI50 (SNB-75) of the same compound?
The GI50 was > 100 µM (inactive).

What about the GI50 (M14) of the same compound?
Its GI50 is > 100 µM (inactive).

And the GI50 (OVCAR-5)?
The GI50 was > 100 µM (inactive).

What about the GI50 (MOLT-4) of the same compound?
The GI50 was > 100 µM (inactive).

And the GI50 (PC-3)?
Its GI50 is > 100 µM (inactive).

What about the GI50 (HOP-92) of the same compound?
Its GI50 is > 100 µM (inactive).

And the GI50 (CAKI-1)?
The GI50 was > 100 µM (inactive).

And the GI50 (RPMI-8226)?
The GI50 was > 100 µM (inactive).

And the GI50 (NCI-H226)?
Its GI50 is > 100 µM (inactive).

What about the GI50 (A549) of the same compound?
Its GI50 is > 100 µM (inactive).

And the GI50 (HOP-62)?
Its GI50 is > 100 µM (inactive).

And the GI50 (SNB-19)?
Its GI50 is > 100 µM (inactive).

What about the GI50 (DU-145) of the same compound?
Its GI50 is > 100 µM (inactive).

What about the GI50 (SK-MEL-2) of the same compound?
Its GI50 is > 100 µM (inactive).

What about the GI50 (786-0) of the same compound?
Its GI50 is > 100 µM (inactive).

What about the GI50 (NCI/ADR-RES) of the same compound?
The GI50 was > 100 µM (inactive).

And the GI50 (EKVX)?
Its GI50 is > 100 µM (inactive).

And the GI50 (Hs-578T)?
Its GI50 is > 100 µM (inactive).

What about the GI50 (BT-549) of the same compound?
Its GI50 is > 100 µM (inactive).

And the GI50 (UACC-62)?
The GI50 was > 100 µM (inactive).

And the GI50 (MCF7)?
The GI50 was > 100 µM (inactive).

What about the GI50 (TK-10) of the same compound?
The GI50 was > 100 µM (inactive).

What about the GI50 (HCT-116) of the same compound?
The GI50 was > 100 µM (inactive).

And the GI50 (MDA-MB-231)?
The GI50 was > 100 µM (inactive).

And the GI50 (Malme-3M)?
The GI50 was > 100 µM (inactive).

And the GI50 (MDA-MB-435)?
The GI50 was > 100 µM (inactive).

And the GI50 (UO-31)?
The GI50 was > 100 µM (inactive).

What about the GI50 (RXF 393) of the same compound?
Its GI50 is > 100 µM (inactive).

What about the GI50 (SW-620) of the same compound?
The GI50 was > 100 µM (inactive).

And the GI50 (OVCAR-8)?
Its GI50 is > 100 µM (inactive).

And the GI50 (SF-539)?
Its GI50 is > 100 µM (inactive).

And the GI50 (SK-MEL-28)?
The GI50 was > 100 µM (inactive).

And the GI50 (KM12)?
Its GI50 is > 100 µM (inactive).

And the GI50 (SK-OV-3)?
Its GI50 is > 100 µM (inactive).

And the GI50 (LOX IMVI)?
The GI50 was > 100 µM (inactive).

And the GI50 (SR)?
Its GI50 is > 100 µM (inactive).

And the GI50 (SK-MEL-5)?
The GI50 was > 100 µM (inactive).

And the GI50 (K562)?
Its GI50 is > 100 µM (inactive).

And the GI50 (HT-29)?
Its GI50 is > 100 µM (inactive).

And the GI50 (SN12C)?
The GI50 was > 100 µM (inactive).

What about the GI50 (U-251) of the same compound?
Its GI50 is > 100 µM (inactive).

What about the GI50 (HL-60) of the same compound?
The GI50 was 9.55 µM (inactive).

And the GI50 (T47D)?
The GI50 was > 100 µM (inactive).

And the GI50 (ACHN)?
Its GI50 is > 100 µM (inactive).

What about the GI50 (OVCAR-3) of the same compound?
Its GI50 is > 100 µM (inactive).

With CCOC(=O)CNC(=O)C(CSCC1C(=O)Nc2ccccc21)NC(=O)CCC(N)C(=O)OCC (stereo not drawn) as the compound, how does the GI50 (HCT-15) read?
Its GI50 is 1.04 µM.

And the GI50 (OVCAR-4)?
Its GI50 is 2.78 µM (inactive).

And the GI50 (A498)?
The GI50 was 3.12 µM (inactive).

What about the GI50 (IGROV-1) of the same compound?
Its GI50 is 1.15 µM (inactive).

What about the GI50 (SF-295) of the same compound?
The GI50 was 2.77 µM (inactive).

And the GI50 (COLO 205)?
The GI50 was 1.24 µM (inactive).

And the GI50 (NCI-H460)?
Its GI50 is 3.28 µM (inactive).

And the GI50 (NCI-H23)?
The GI50 was 2.26 µM (inactive).

And the GI50 (CCRF-CEM)?
The GI50 was 0.269 µM (active).

What about the GI50 (UACC-257) of the same compound?
The GI50 was 4.16 µM (inactive).

What about the GI50 (MDA-N) of the same compound?
Its GI50 is 1.79 µM (inactive).

And the GI50 (NCI-H522)?
Its GI50 is 1.63 µM (inactive).

What about the GI50 (SF-268) of the same compound?
The GI50 was 1.86 µM (inactive).

And the GI50 (M14)?
Its GI50 is 1.84 µM (inactive).

And the GI50 (OVCAR-5)?
The GI50 was 1.84 µM (inactive).

What about the GI50 (PC-3) of the same compound?
Its GI50 is 1.88 µM (inactive).

And the GI50 (HOP-92)?
Its GI50 is 1.25 µM (inactive).

What about the GI50 (CAKI-1) of the same compound?
The GI50 was 0.745 µM (active).

What about the GI50 (RPMI-8226) of the same compound?
Its GI50 is 1.27 µM (inactive).

And the GI50 (NCI-H226)?
Its GI50 is 1.93 µM (inactive).

What about the GI50 (A549) of the same compound?
The GI50 was 2.34 µM (inactive).

What about the GI50 (HOP-62) of the same compound?
The GI50 was 2.1 µM (inactive).

What about the GI50 (SNB-19) of the same compound?
The GI50 was 7.46 µM (inactive).

And the GI50 (DU-145)?
The GI50 was 3.75 µM (inactive).

And the GI50 (SK-MEL-2)?
The GI50 was 1.87 µM (inactive).

And the GI50 (786-0)?
The GI50 was 1.63 µM (inactive).

And the GI50 (NCI/ADR-RES)?
Its GI50 is 1.08 µM (active).

What about the GI50 (EKVX) of the same compound?
Its GI50 is 1.75 µM (inactive).

And the GI50 (Hs-578T)?
Its GI50 is 4.21 µM (inactive).

What about the GI50 (BT-549) of the same compound?
Its GI50 is 2.44 µM (inactive).

And the GI50 (UACC-62)?
Its GI50 is 1.57 µM (inactive).

What about the GI50 (MCF7) of the same compound?
The GI50 was 1.07 µM (active).

And the GI50 (TK-10)?
Its GI50 is 1.62 µM (inactive).

What about the GI50 (HCT-116) of the same compound?
Its GI50 is 0.551 µM (active).

What about the GI50 (MDA-MB-231) of the same compound?
Its GI50 is 1.58 µM (inactive).

And the GI50 (Malme-3M)?
Its GI50 is 1.88 µM (inactive).

What about the GI50 (MDA-MB-435) of the same compound?
The GI50 was 1.32 µM (inactive).

What about the GI50 (UO-31) of the same compound?
The GI50 was 1.23 µM (inactive).

What about the GI50 (RXF 393) of the same compound?
Its GI50 is 1.19 µM (inactive).

And the GI50 (SW-620)?
Its GI50 is 1.19 µM (inactive).

And the GI50 (OVCAR-8)?
Its GI50 is 2.81 µM (inactive).

What about the GI50 (SF-539) of the same compound?
The GI50 was 0.247 µM (active).

What about the GI50 (SK-MEL-28) of the same compound?
The GI50 was 1.68 µM (inactive).

What about the GI50 (KM12) of the same compound?
Its GI50 is 2.89 µM (inactive).

What about the GI50 (LOX IMVI) of the same compound?
The GI50 was 0.46 µM (active).

And the GI50 (SR)?
The GI50 was 0.24 µM (active).

And the GI50 (SK-MEL-5)?
The GI50 was 1.6 µM (inactive).

And the GI50 (K562)?
The GI50 was 0.242 µM (active).

What about the GI50 (HT-29) of the same compound?
Its GI50 is 1.55 µM (inactive).

And the GI50 (SN12C)?
Its GI50 is 1.52 µM (inactive).

And the GI50 (U-251)?
The GI50 was 1.31 µM (inactive).

And the GI50 (HL-60)?
Its GI50 is 2.36 µM (inactive).

What about the GI50 (T47D) of the same compound?
The GI50 was 5.65 µM (inactive).

And the GI50 (ACHN)?
Its GI50 is 1.62 µM (inactive).

And the GI50 (OVCAR-3)?
Its GI50 is 2.01 µM (inactive).
